Each structure is given as a SMILES string. Active and inactive are the calls of the source. The rule behind the calls is not given here.

In the series the test system is rodent carcinogenicity bioassays, tumor incidence. Description: CCRIS carcinogenicity studies. The essentials:
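Archive of carcinogenicity, mutagenicity, tumor promotion and tumor inhibition results drawn from journals, NCI reports and other sources, expert-reviewed; covers 1985-2011 and is no longer updated.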

As for `C=C1C/C(=C/C)C(=O)O[C@@H]2CCN3CC=C(COC(=O)[C@@]1(O)CO)[C@H]23`, the carcinogen call by setting is: (Species: MOUSE, Strain/Sex: B6C3F1/FEMALE, Route: GAVAGE, Dose: 0, 3 MG/KG IN 0.1 M PHOSPHATE BUFFER 5 D/WK FOR 105 WK (STUDY DURATION: 105 WK), Tumor Site: Type of Lesion: LUNG (ALVEOLAR/BRONCHIOLAR): ADENOMA, ADENOMA OR CARCINOMA) “active; positive”; (Species: MOUSE, Strain/Sex: B6C3F1/MALE, Route: GAVAGE, Dose: 0, 0.1, 0.3, 1, 3 MG/KG IN 0.1 M PHOSPHATE BUFFER 5 D/WK FOR 105 WK (STUDY DURATION: 105 WK), Dose: 0, 0.1, 0.3, 1, 3 MG/KG IN 0.1 M PHOSPHATE BUFFER 5 D/WK FOR 105 WK (STUDY DURATION: 105 WK), Tumor Site: Type of Lesion: LIVER: HEMANGIOSARCOMA) “active; positive”; (Species: RAT, Strain/Sex: F344/FEMALE, Route: GAVAGE, Dose: 0, 0.01, 0.033, 0.1, 0.33 MG/KG IN 0.1 M PHOSPHATE BUFFER 5 D/WK FOR 105 WK (STUDY DURATION: 105 WK), Dose: 0, 0.01, 0.033, 0.1, 0.33 MG/KG IN 0.1 M PHOSPHATE BUFFER 5 D/WK FOR 105 WK (STUDY DURATION: 105 WK)) “inactive; negative”; (Species: RAT, Strain/Sex: F344/FEMALE, Route: GAVAGE, Dose: 0, 1 MG/KG IN 0.1 M PHOSPHATE BUFFER 5 D/WK FOR 97 WK (STUDY DURATION: 97 WK), Tumor Site: Type of Lesion: LIVER: HEMANGIOSARCOMA, HEPATOCELLULAR ADENOMA, ADENOMA OR CARCINOMA, HEMATOPOIETIC SYSTEM: MONONUCLEAR CELL LEUKEMIA) “active; positive”; (Species: RAT, Strain/Sex: F344/MALE, Route: GAVAGE, Dose: 0, 1 MG/KG IN 0.1 M PHOSPHATE BUFFER 5 D/WK FOR 72 WK (STUDY DURATION: 72 WK), Tumor Site: Type of Lesion: LIVER: HEMANGIOSARCOMA, HEPATOCELLULAR ADENOMA, HEMATOPOIETIC SYSTEM: MONONUCLEAR CELL LEUKEMIA) “active; positive”.

Take `COCCN(N=O)C(N)=O`: the carcinogen call (Species: RAT, Strain/Sex: F344/FEMALE, Route: INTRAVESICULAR, Dose: 0, 3.2 MG 2/WK FOR 17 WK (STUDY DURATION: LIFETIME), Tumor Site: Type of Lesion: BLADDER: TUMOR) is “active; positive”.

As for `ClCC1CO1` (configuration not stated), the carcinogen call (Species: MOUSE, Route: DERMAL, Tumor Site: Type of Lesion: INTEGUMENTARY SYSTEM (SKIN)) was “active; positive”; the carcinogen call (Species: MOUSE, Route: SUBCUTANEOUS, Tumor Site: Type of Lesion: INJECTION SITE) is “active; positive”; the carcinogen call (Species: RAT, Strain/Sex: WISTAR/FEMALE, Route: GAVAGE, Dose: 0, 2, 10 MG/KG IN WATER 5 D/WK FOR 104 WK (STUDY DURATION: 24 MO), Dose: 0, 2, 10 MG/KG IN WATER 5 D/WK FOR 104 WK (STUDY DURATION: 24 MO), Tumor Site: Type of Lesion: FORESTOMACH: SQUAMOUS CELL CARCINOMA) was “active; positive”; the carcinogen call (Species: RAT, Strain/Sex: WISTAR/MALE, Route: GAVAGE, Dose: 0, 2, 10 MG/KG IN WATER 5 D/WK FOR 104 WK (STUDY DURATION: 24 MO), Dose: 0, 2, 10 MG/KG IN WATER 5 D/WK FOR 104 WK (STUDY DURATION: 24 MO), Tumor Site: Type of Lesion: FORESTOMACH: SQUAMOUS CELL CARCINOMA) is “active; positive”.

As to `O=C(O)COc1ccc(Cl)cc1Cl`, the carcinogen call is, setting by setting: (Species: MOUSE, Strain/Sex: B6C3F1/FEMALE, Route: ORAL, Dose: 0, 5, 150, 300 MG/KG BW DAILY FOR 2 YR (STUDY DURATION: 2 YR), Dose: 0, 5, 150, 300 MG/KG BW DAILY FOR 2 YR (STUDY DURATION: 2 YR)) “inactive; negative”; (Species: MOUSE, Strain/Sex: B6C3F1/MALE, Route: ORAL, Dose: 0, 5, 62.5, 125 MG/KG BW DAILY FOR 2 YR (STUDY DURATION: 2 YR), Dose: 0, 5, 62.5, 125 MG/KG BW DAILY FOR 2 YR (STUDY DURATION: 2 YR)) “inactive; negative”; (Species: RAT, Strain/Sex: F344/FEMALE, Route: ORAL, Dose: 0, 5, 75, 150 MG/KG BW DAILY FOR 2 YR (STUDY DURATION: 2 YR), Dose: 0, 5, 75, 150 MG/KG BW DAILY FOR 2 YR (STUDY DURATION: 2 YR)) “inactive; negative”; (Species: RAT, Strain/Sex: F344/MALE, Route: ORAL, Dose: 0, 5, 75, 150 MG/KG BW DAILY FOR 2 YR (STUDY DURATION: 2 YR), Dose: 0, 5, 75, 150 MG/KG BW DAILY FOR 2 YR (STUDY DURATION: 2 YR)) “inactive; negative”.

Take `CCN(Cc1cccc(S(=O)(=O)O)c1)c1ccc(C(=C2C=CC(=[N+](CC)Cc3cccc(S(=O)(=O)O)c3)C=C2)c2ccc(O)cc2S(=O)(=O)[O-])cc1`: the carcinogen call reads like this: (Species: MOUSE, Strain/Sex: SWISS-WEBSTER/FEMALE, Route: DERMAL, Dose: 0, 1% IN 0.1 ML DISTILLED WATER 1/WK FOR 19.5 MO (STUDY DURATION: 19.5 MO)) “inactive; negative”; (Species: MOUSE, Strain/Sex: SWISS-WEBSTER/MALE, Route: DERMAL, Dose: 0, 1% IN 0.1 ML DISTILLED WATER 1/WK FOR 19.5 MO (STUDY DURATION: 19.5 MO)) “inactive; negative”; (Species: RAT, Strain/Sex: FISCHER/FEMALE, Route: SUBCUTANEOUS, Dose: 0, 0.5 ML OF 3% SOLUTION IN DISTILLED WATER (0; 15 MG) 2/WK FOR 26 WK THEN 1/WK FOR 22 WK (STUDY DURATION: 11 MO), Dose: 0, 0.5 ML OF 3% SOLUTION IN DISTILLED WATER (0; 15 MG) 2/WK FOR 26 WK THEN 1/WK FOR 22 WK (STUDY DURATION: 11 MO), Tumor Site: Type of Lesion: INJECTION SITE: FIBROSARCOMA) “active; positive”; (Species: RAT, Strain/Sex: FISCHER/FEMALE, Route: SUBCUTANEOUS, Dose: 0, 0.5 ML OF 6% SOLUTION IN DISTILLED WATER (0; 30 MG) 2/WK FOR 19 WK THEN 3% SOLUTION (0; 15 MG) 2/WK FOR 9 WK FOLLOWED, Dose: 0, 0.5 ML OF 6% SOLUTION IN DISTILLED WATER (0; 30 MG) 2/WK FOR 19 WK THEN 3% SOLUTION (0; 15 MG) 2/WK FOR 9 WK FOLLOWED, Tumor Site: Type of Lesion: INJECTION SITE: FIBROSARCOMA) “active; positive”.

On to `Nc1ccc(O)c([N+](=O)[O-])c1`, for which the carcinogen call reads like this: (Species: MOUSE, Strain/Sex: B6C3F1/FEMALE, Route: ORAL, Dose: 0, 1250, 2500 PPM IN DIET FOR 103 WK (STUDY DURATION: 105 WK), Dose: 0, 1250, 2500 PPM IN DIET FOR 103 WK (STUDY DURATION: 105 WK)) “inactive; negative”; (Species: MOUSE, Strain/Sex: B6C3F1/MALE, Route: ORAL, Dose: 0, 1250, 2500 PPM IN DIET FOR 103 WK (STUDY DURATION: 105 WK), Dose: 0, 1250, 2500 PPM IN DIET FOR 103 WK (STUDY DURATION: 105 WK)) “inactive; negative”; (Species: RAT, Strain/Sex: F344/FEMALE, Route: ORAL, Dose: 0, 1250, 2500 PPM IN DIET FOR 103 WK (STUDY DURATION: 105 WK), Dose: 0, 1250, 2500 PPM IN DIET FOR 103 WK (STUDY DURATION: 105 WK), Tumor Site: Type of Lesion: BLADDER: CARCINOMA) “equivocal”; (Species: RAT, Strain/Sex: F344/MALE, Route: ORAL, Dose: 0, 1250, 2500 PPM IN DIET FOR 103 WK (STUDY DURATION: 105 WK), Dose: 0, 1250, 2500 PPM IN DIET FOR 103 WK (STUDY DURATION: 105 WK), Tumor Site: Type of Lesion: URINARY BLADDER: TRANSITIONAL CELL CARCINOMA) “active; positive”.
